{"source": "patent US20210298297A1", "about": "“MOSQUITO ATTRACTANTS” (Wageningen Universiteit, priority 2018, published 2021)", "key": {"Anopheles coluzzii": {"system": "Anopheles coluzzii", "experiment": "Dual-port olfactometer preference test of IAC and IAC blends", "format": "in vivo", "conditions": "for behavioural response on supplementing parasite-free odour with the IAC alone: individual IAC, at least two concentrations, with parasite-free odour (socks) vs parasite-free odour alone", "description": "Six IAC (heptanal, octanal, nonanal, (E)-2-octenal, (E)-2-decenal and 2-octanone) were tested in a background of odour from the worn nylon socks of twelve parasite-free children (18S qPCR confirmed). Each sock pair was cut into twelve strips after removing the foot part, then 12 bundles were made, each containing a strip from each individual. Bundles were stored at −20° C. until, and between, experiments. IAC were positioned downwind and separated from sock bundles by a metal grid, ensuring no contact. Parasite-free odour (bundles) was tested with or without individual IAC (in 10 μL hexane on filter paper) and against the same but with hexane alone.\nNext, we verified whether the IAC could improve a mosquito lure for monitoring or mass trapping of Anopheles. Heptanal, the most promising candidate from the above experiment, was tested as well as two blends: Plas 5 contained the IAC that were associated with parasitological positivity (nonanal, heptanal, octanal, (E)-2-decenal and (E)-2-octenal), and Plas 6 additionally contained the gametocyte-associated 2-octanone (FIG. 3). Each of Plas 5 and Plas 6 were made up in hexane by weighing the appropriate amounts of constituent compounds into a volumetric flask. […] Plas 5 and Plas 6 were tested with the synthetic lure MB5^36 at four concentrations, each decreasing by a factor of 10 from the 100% concentration by serial dilution.\nMB5 was presented on nylon strips as described in Menger et al. (2014)^36 (except the five compounds were incubated onto a single 5×26.5 cm nylon strip instead of five narrower strips). 10 μl of the Plas5 or Plas6 blend at 100% or serial dilution was pipetted onto a filter paper and added in the same olfactometer trap.\nA triple chamber dual-port olfactometer^59 was used to test the preference of 30 five- to eight-day-old female, non blood-fed Anopheles coluzzii (Suokoko strain^21, rearing procedures as published previously^21) for parasite free odour or MB5, supplemented with IAC or IAC blends, against background odour alone (parasite-free odour or MB5). Mosquitoes were maintained in a release cage prior to testing (for 16-22 hours). Experiments took place during the last four hours of the scotophase under near-dark conditions (<1 lux). Mosquitoes were allowed to fly for 15 minutes, then those that had entered the traps with test/control odours were counted. Each IAC/concentration combination was tested eight-nine times on different days, and each Plas concentration 10-11 times on different days, rotating treatments between the left and right port of the olfactometer. Climatic data (R.H., temperature and air pressure) were recorded in the flight chambers and in the surrounding room.\nGeneralized linear models (GLMs) were used to test the effect of odours (individual IAC/heptanal/Plas blends) on relative attractiveness (the proportion of mosquitoes selecting the test odour). GLMs were run as described above (statistical analysis, attractiveness of ‘infected odour’ (socks) by cage assays), testing parameters associated with the set-up as additional factors or covariates in the model, and retaining when significant (P<0.05, F-test). Sets of compounds were run in separate models. SPSS® was used for the analyses."}, "[1]": {"system": "Anopheles coluzzii antennae", "experiment": "Gas chromatography-electroantennography (GC-EAG) of pooled odour samples", "conditions": "analytes in pooled foot odour extracts; >3 responses of 6/7 repetitions = EAG-active", "description": "Porapak filters were eluted using re-distilled diethyl ether (750 μL), and, to approximate an “average” odour per category, extracts were pooled according to the individual's parasitological status: (1) Plasmodium infection, no gametocytes (2) high-density P. falciparum gametocytes (3) parasite-free individuals, (4) Plasmodium infection, sub-microscopic P. falciparum gametocytes. Aliquots (400 μL) of extracts were mixed, then concentrated (to 60 μL) under a stream of nitrogen (charcoal-filtered). Glassware, charcoal filters and PTFE tubing were cleaned as before.\nGC-EAG was conducted during the scotophase, using four- to eight- day-old, unfed female Anopheles coluzzii (N′gousso strain^56). Adults were maintained at 70% RH, with a 12 h light/dark cycle (scotophase 09:00-21:00) and access to 50% glucose solution. The order of testing blends was determined by a 5×5 Latin square (including control blend). The mosquito head was dissected, and the palps, proboscis, and half of the terminal (13th) antennal flagellomere cut off. The indifferent electrode was inserted into the back of the head and the antennal tips guided into the recording electrode to complete the circuit (FIG. 3). Electrodes were hand-pulled glass tips inserted over silver wire (diameter 0.37 mm; Harvard Apparatus, Edenbridge, UK) and filled with Ringers' solution^15. […] The eluate was split to the FID detector and EAG interface at a ratio of 1:1. At the EAG interface, the eluate passed from the heated splitter column to a stream of charcoal filtered, humidified air (flow rate 400 mL/min). This airflow was directed over the antenna at a distance of 5 mm. The signal was amplified ×10,000 by the Intelligent Data Acquisition Controller-4, and signals were analysed using EAD 2000 software (both Syntech®, Hilversum, The Netherlands). Responses were signified by a depolarisation of sufficient amplitude. Peaks that elicited responses in more than 3, of the 6/7 total repetitions, were considered to be EAG-active."}}}
{"compound": "CCCCCCCC=O", "note": "[octanal]", "values": [{"measurement": "behavioural response on supplementing parasite-free odour with the IAC alone", "setting": "Anopheles coluzzii", "value": "did not induce altered behavioural responses"}, {"measurement": "antennal (EAG) response", "setting": "[1]", "value": "elicit antennal response"}]}
{"compound": "CCCCCCC/C=C/C=O", "note": "[(E)-2-decenal]", "values": [{"measurement": "behavioural response on supplementing parasite-free odour with the IAC alone", "setting": "Anopheles coluzzii", "value": "did not induce altered behavioural responses"}]}
{"compound": "CCCCCCCCC=O", "note": "[nonanal]", "values": [{"measurement": "behavioural response on supplementing parasite-free odour with the IAC alone", "setting": "Anopheles coluzzii", "value": "did not induce altered behavioural responses"}, {"measurement": "antennal (EAG) response", "setting": "[1]", "value": "elicit antennal response"}]}
{"compound": "CCCCCCC=O", "note": "[heptanal]", "values": [{"measurement": "proportion of mosquitoes selecting the test odour (GLM, 95 CI)", "setting": "Anopheles coluzzii; 10 μL heptanal at 10^−8 g/mL added to parasite-free odour (socks) vs parasite-free odour alone", "value": "0.60-0.84"}, {"measurement": "effect on attractiveness of parasite-free odour", "setting": "Anopheles coluzzii; heptanal at 10^−7 g/mL added to parasite-free odour vs parasite-free odour alone", "value": "no effect"}, {"measurement": "attractiveness of MB5 supplemented with the compound relative to control MB5", "setting": "Anopheles coluzzii; three concentrations, data not shown", "value": "equally attractive"}, {"measurement": "antennal (EAG) response", "setting": "[1]", "value": "elicit antennal response"}]}
{"compound": "CCCCC/C=C/C=O", "note": "[(E)-2-octenal]", "values": [{"measurement": "behavioural response on supplementing parasite-free odour with the IAC alone", "setting": "Anopheles coluzzii", "value": "did not induce altered behavioural responses"}]}
{"compound": "CCCCCCC(C)=O", "note": "[2-octanone]", "values": [{"measurement": "behavioural response on supplementing parasite-free odour with the IAC alone", "setting": "Anopheles coluzzii", "value": "did not induce altered behavioural responses"}]}
